This is an account of results in paper PMC7216583 (Parasites & Vectors, 2020).

Data set [1] has as its target δ-opioid receptor. Set-up: method as in library vendor description. The conditions noted are these: agonist; ref library vendor description; cited from earlier work.
In data set [2] the test system is Toxoplasma gondii RH-2F tachyzoites. In words: microbe, parasite or virus in culture. The settings on record: 72 h, read-out: Parasite inhibition (%) mean, preliminary screen, mean.
Data set [3] deals with CYP17. On the set-up: method as in library vendor description. The conditions noted are these: ref library vendor description; cited from earlier work.
Data set [4] deals with VEGFR2. On the set-up: method as in library vendor description. The settings on record: ref library vendor description; cited from earlier work.
Data set [5] concerns FGFR1. On the set-up: method as in library vendor description. The settings on record: ref library vendor description; cited from earlier work.
Data set [6] relates to VEGFR1. On the set-up: method as in library vendor description. The conditions noted are these: ref library vendor description; cited from earlier work.
The test system of data set [7] is Flk1. Set-up: method as in library vendor description. The settings on record: ref library vendor description; cited from earlier work.
Data set [8] relates to G551D-CFTR. Set-up: method as in library vendor description. The settings on record: potentiator; ref library vendor description; cited from earlier work.
Data set [9] concerns F508del-CFTR. On the set-up: method as in library vendor description. The settings on record: potentiator; ref library vendor description; cited from earlier work.
A short description of data set [10]: in vitro. The settings on record: human.
The target in data set [11] is DHFR. The settings on record: read-out: Ki DHFR; ref library vendor description; cited from earlier work.
In data set [12] the test system is SIRT1. Set-up: method as in library vendor description. The conditions noted are these: ref library vendor description; cited from earlier work.
Data set [13] concerns the target Bcl-xL. Set-up: method as in library vendor description. The conditions noted are these: recombinant; ref library vendor description; cited from earlier work.
In data set [14] the target is Bcl-2. Set-up: method as in library vendor description. The conditions noted are these: ref library vendor description; cited from earlier work.
Data set [15] deals with Mcl-1. Set-up: method as in library vendor description. The settings on record: recombinant; ref library vendor description; cited from earlier work.
For data set [16], the system named is survivin. On the set-up: method as in library vendor description. The conditions noted are these: ref library vendor description; cited from earlier work.

Where a name gives a salt, the structure may show the parent alone.

On to `CCN(CC)C(=O)c1ccc(C2=CC3(CCNCC3)Oc3cccc(O)c32)cc1` [ADL5859 HCl], for which, in data set [1], the Ki was 0.8 nM. The inhibition of growth at 5 µM in data set [2] came out at 1.1%.
For `C[C@]12CC[C@H](O)CC1=CC[C@@H]1[C@H]2CC[C@]2(C)C(c3cccnc3)=CC[C@@H]12` [Abiraterone (CB-7598)], the half-maximal inhibitory concentration (IC50) in [3] was 2 nM. In data set [2], the inhibition of growth at 5 µM was 11.2%.
With `Cc1cc2c(F)c(Oc3ncnn4cc(OC[C@@H](C)OC(=O)[C@H](C)N)c(C)c34)ccc2[nH]1` [Brivanib alaninate (BMS-582664)], the IC50 in [4] is 25 nM; in [5] it was 148 nM; in data set [6], 380 nM; in data set [7] it was 89 nM. For the same compound, the inhibition of growth at 5 µM in data set [2] came out at 7.1%.
For the compound `CC(C)(C)c1cc(C(C)(C)C)c(NC(=O)c2c[nH]c3ccccc3c2=O)cc1O` [Ivacaftor (VX-770)], the EC50 in data set [8] was 100 nM; in data set [9], 25 nM. For the same compound, in data set [2], the inhibition of growth at 5 µM worked out at 0.6%.
In data set [10], `Nc1nc(=O)c2c(CCc3ccc(C(=O)N[C@H](CCC(=O)O)C(=O)O)cc3)c[nH]c2[nH]1` [Pemetrexed (Alimta)] registered a viability of 84.6%. The Ki in [11] is 7.2 nM.
As to `Cl.O=C(Nc1ccccc1-c1cn2c(CN3CCNCC3)csc2n1)c1cnc2ccccc2n1` [SRT1720], the “EC1.5 SIRT1 activation” value in [12] is on record as “SRT1720 is a selective SIRT1 activator with EC1.5 of 0.16 μM”. The inhibition of growth at 5 µM in [2] is 18.3%.
Turning to `CC(C)c1ccccc1Cc1cc(C(=O)Nc2ccc(S(=O)(=O)c3ccccc3C(C)(C)C)cc2)c(O)c(O)c1O` [TW-37], the Ki was 1110 nM in [13], 290 nM in [14] and 260 nM in data set [15]. Also, the inhibition of growth at 5 µM in data set [2] is 58.9%.
In the case of `COCCn1c2c([n+](Cc3cnccn3)c1C)C(=O)c1ccccc1C2=O` [YM155], in data set [16], the IC50 is 0.54 nM. In addition, the inhibition of growth at 5 µM in data set [2] amounted to 15.4%.
